Data: PMC11409218, “Metal(triphenylphosphine)-atovaquone Complexes: Synthesis, Antimalarial Activity, and Suppression of Heme Detoxification” (Inorganic Chemistry, 2024)

Assays:
[1] = system: 3D7 strain of P. falciparum; experiment: Antiplasmodial activity after preincubation of compounds in cell culture medium (Figure 3A); format: cell-based, Plasmodium falciparum; details: compound preincubated 0 or 72 h in culture medium
Procedure: To understand the reason for the difference in antiplasmodial potency between monodentate complex 2 and bidentate complexes 1 and 3, we incubated all three metal complexes in cell culture media for different times before assessing their antiplasmodial activity (Figure 3A). The percentage of parasite growth inhibition in samples of cell culture medium containing complex 2 was reduced after 72 h incubation in comparison to freshly prepared samples (0 h). […] We interpret the loss in antiplasmodial activity for complex 2 as potentially resulting from ligand exchange reactions occurring in the culture medium before drug internalization into parasite cells. This denotes a higher lability for the monodentate complex 2 than for the bidentate complexes 1 and 3.
(§1) Figure 3 (A) Antiplasmodial activity of the compounds against the 3D7 strain of P. falciparum. (B) Cytotoxicity against the J774 cell line. In both cases, the compounds were diluted in cell culture and incubated for 0 or 72 h before use in the assays. […] In panels A and C, parasite viability was measured by HRP2 ELISA-based assay, and IC50 values were calculated. In panel B, cell viability was measured by CellTiter-Glo, and IC50 values were calculated. In panels A and B, the values are the mean and standard deviation of two independent experiments, using each concentration of compounds in duplicate. In panel C, the values are the mean and standard deviation of one experiment, using each concentration of compounds in quadruplicate. *p < 0.05; indicating significant difference by Student’s t test.

[2] = Chemical stability in solution (UV–vis, NMR, molar conductivity); format: physicochemical; details: for ΛM (DMSO) Day 1 / ΛM (DMSO) Day 2 / ΛM (DMSO) Day 3 / ΛM (DMSO) Day 7 / ΛM (DMSO) Day 15: molar conductivity in DMSO, stability; for stability by UV–vis in pure DMSO: primarily within 0–24 h
Procedure: Three distinct methodologies were used to investigate the in-solution stability of metal–ATV complexes 1–3, namely ultraviolet–visible (UV–vis) spectra, NMR, and molar conductivity. All experiments were performed in dimethyl sulfoxide (DMSO) and monitored for at least 72 h, a time frame which coincides with antimalarial drug treatment.
Furthermore, no significant changes in the ^1H NMR and ^31P{^1H} NMR spectra of the complexes were observed up to 72 h in comparison to freshly dissolved solution, denoted as time 0 h (Figures S20–S25). However, for the ^31P{^1H} NMR spectrum of the complex 3, it is observed an increasing intensity of the singlet at 28 ppm that can be attributed to oxidized PPh3, which may be leaving the coordination sphere, but this is relative low when compared with the signal of the complex at −1.76 ppm. Both molar conductivity and NMR data therefore indicate that the metal complexes remained intact in this condition. The observed […] in DMSO is likely related to the fact that the metal atoms are bonded to phosphine ligands, hindering any oxidation of the metal center.
As for the UV–vis analyses, these were used to assess the stability of metal–ATV complexes 1–3 in a solution of pure DMSO or DMSO mixed with aqueous media. To this end, three different conditions were employed in parallel experiments. […] The small change in absorbance observed can be attributed to dynamic equilibrium processes or structural reorganization of the metal complexes. These processes may include partial dissociation of ligands, reorientation of solvent molecules around the metal ion, or even conformational changes of the metal complexes. […] Highlighting that these conditions are the most similar to those employed in the determination of biological activity. Based on this, we concluded that in mixed aqueous/organic media, ATV and complexes 1–3 may undergo slight structural modifications, but no significant ligand exchange reactions occur, as previously observed in the stability studies by NMR.
For the stability studies by NMR spectroscopy, fresh solutions of the complexes in DMSO-d6 with concentrations of 22–25 mM were used. In the studies by UV–vis spectroscopy, three experimental conditions were employed: a) only DMSO, b) 90% DMSO/10% H2O, and c) 90% DMSO/10% RPMI 1640 (Roswell Park Memorial Institute) medium, with concentrations of the complexes 1-3 in 0.28–0.35 μM, 0.25–0.28 μM and 0.32–0.38 μM, respectively. Fresh solutions of the complexes dissolved in DMSO were always used and subsequently diluted with water or RPMI medium.

[3] = system: J774 cell line; experiment: Cytotoxicity after preincubation of compounds in cell culture medium (Figure 3B); format: cell-based, murine; details: J774 cells; compound preincubated 0 or 72 h in culture medium
Procedure: as §1
To further shed light on this, we performed the same experiment described above but assessing cytotoxicity in […] cells (Figure 3B). […] Our data also confirm not only drug stability but also the reactivity of the resulting products as important parameters.

[4] = Cytotoxicity in mammalian cells (CellTiter-Glo), HepG2; format: cell-based; details: HepG2 hepatocellular carcinoma cells; HepG2 human hepatocellular carcinoma line; 72 h drug incubation; mean of three experiments; read-out: mammalian cells CC50 (±SEM), HepG2
Procedure: (§2) Cell lines J774 and HepG2 were incubated with the drug for 72 h, the same time frame as employed to determine antimalarial activity. Cytotoxicity was evaluated in parallel with ATV as a representative parental drug, while doxorubicin was used as a standard cytotoxic drug. These experiments were also used to estimate the in vitro selectivity index (Table 2).
(§3) Doxorubicin chloridrate (Eurofarma, São Paulo, Brazil) was used as a positive control, while untreated cells were employed as negative controls. Bioluminescence readings were performed using a Filtermax F5Multi-Mode instrument (Molecular Devices, Sunnyvale, CA) using the CellTiter-Glo kit (Promega Corporation, Madison, USA). Three independent experiments were performed and CC50 values were calculated.

[5] = system: 3D7 strain of P. falciparum; experiment: Coincubation of ATV with metal precursors, parasite growth inhibition (Figure 3C); format: cell-based, Plasmodium falciparum; details: ATV 1.0 nM, [Au(PPh3)Cl] and [Cu(PPh3)2NO3] at 1000 nM
Procedure: as §1
After ascertaining the existence of an association between the reactivity of the metal complexes and their pharmacological activity, we decided to evaluate whether they could be generated in situ upon coincubation of ATV and the respective metal precursors in the cell culture medium. In this set of experiments, ATV was added at 1.0 nM, while the metal precursors of gold(I) [Au(PPh3)Cl] and copper(I) [Cu(PPh3)2NO3] were added at 1000 nM (Figure 3C).

[6] = Cytotoxicity in mammalian cells (CellTiter-Glo), J774; format: cell-based; details: mouse, J774 macrophage cells; J774 murine macrophage line; 72 h drug incubation; mean of three experiments; read-out: mammalian cells CC50 (±SEM), J774
Procedure: as §2, §3

Row | Compound | parasite growth inhibition after 72 h incubation in cell culture medium versus freshly prepared samples (0 h) [1] | stability by UV–vis in 90% DMSO mixed with 10% water ([2]; 90% DMSO/10% H2O) | ΛM (DMSO) Day 1 [2] [Ohm-1cm2mol-1] | ΛM (DMSO) Day 2 [2] [Ohm-1cm2mol-1] | ΛM (DMSO) Day 3 [2] [Ohm-1cm2mol-1] | ΛM (DMSO) Day 7 [2] [Ohm-1cm2mol-1] | ΛM (DMSO) Day 15 [2] [Ohm-1cm2mol-1] | stability by UV–vis in pure DMSO [2] | cell viability (cytotoxicity) after 72 h incubation in cell culture medium versus freshly prepared samples (0 h) [3] | CC50 at 72 h [4] [µM] | parasite growth inhibition of ATV in the absence or presence of metal precursors [5] | CC50 at 72 h [6] [µM]
1 | O=C1C([O][Cu]([PH](c2ccccc2)(c2ccccc2)c2ccccc2)[PH](c2ccccc2)(c2ccccc2)c2ccccc2)=C([C@H]2CC[C@H](c3ccc(Cl)cc3)CC2)C(=O)c2ccccc21 [Complex 3, [Cu(ATV)(PPh3)2]] | remained unchanged | major change in the spectra | 3.71 | 3.80 | 3.47 | 3.14 | 3.05 | modifications were observed in the electronic spectra | remained unchanged | – | – | –
2 | O=C1C(O)=C([C@H]2CC[C@H](c3ccc(Cl)cc3)CC2)C(=O)c2ccccc21 [ATV, atovaquone] | – | – | 0.93 | 1.07 | 1.23 | 1.68 | 2.04 | – | – | 32.4 ± 4.8 | did not observe a difference | 19.8 ± 1.6
3 | [Au(ATV)(PPh3)]·2H2O [Complex 2] | reduced | – | 12.69 | 14.51 | 12.53 | 12.41 | 11.84 | modifications were observed in the electronic spectra | remained unchanged | – | – | –
4 | [Ag(ATV)(PPh3)2] [Complex 1] | remained unchanged | – | 12.81 | 13.90 | 16.14 | 13.70 | 12.17 | – | became less cytotoxic | – | – | –
